Key:
C. trachomatis SVK = assay: Flow cytometry on Chlamydia-infected human B-lymphocytes (JY) treated with delta tocotrienol; assay type: cell-based, Chlamydia trachomatis
Procedure: FIG. 5 illustrates flow cytometry on Chlamydia-infected human B-lymphocytes treated with delta tocotrienol. Human B-lymphocyte (JY) cells were treated with a 30 μmol/L concentration of delta tocotrienol in culture for 4 hours, infected with C. trachomatis SVK for 24-72 hours. Immunofluorescent Chlamydia-positive cells were detected by flow cytometry.
Chlamydial Strains: Stocks of C. trachomatis serovar K/VR887 were grown in J774A.1 cells without centrifuge assistance. Infected cells were lysed, this stock aliquoted and frozen down in SPG freeze medium (75.0 g sucrose, 0.52 g potassium phosphate, 1.22 g sodium phosphate dibasic, 0.72 g glutamic acid, diluted in […] ddH2O). These aliquots were stored in liquid N2 or at −80° C., and later thawed for use to infect monolayers.
Cell Lines Used: Mouse macrophages (J774A.1), human mammary tumor cells (MCF-7), and human epithelial cells (Hep-2), were obtained from the American Type Culture collection. Human mammary tumor cells (TMX2-28) were a kind gift from Dr. Arcaro, and human B-lymphocytes (JY) were a kind gift from Dr. Eric Martz. All cell lines were maintained in Richter's improved MEM insulin (IMEMZO, Irvine Scientific, Santa Ana, Calif.) with 5% fetal bovine serum (FBS, Atlanta Biologicals, Norcross, Ga.). Cells were grown to 80% confluence on 12 mm coverslips in 12 well plates (Becton Dickinson Labware, Franklin Lakes, N.J.). A dilution of 1:125 or 1:200 of the C. trachomatis serovar K stock was made using the standard complete cycloheximide overlay media (Bio-Whittaker, Walkersville, Md.) containing 10% FBS, and 1× L-glutamine (CCOM). This was layered onto the coverslip containing monolayers, and incubated for 24-48 hours at 37° C. with 5% CO2. Coverslips with the cell monolayers were harvested, rinsed with phosphate buffered saline (PBS), fixed with 70% cold methanol, stored and subsequently immunostained. […]
Immunostaining: Briefly, infected cells were immunostained with a 1:2 dilution of guinea pig anti-chlamydia polyclonal antibody (Biomeda, Foster City, Calif.), or a 1:125 dilution of rabbit anti-chlamydia EB whole serum for 1 hour at 37° C. Following PBS rinses X3, the bound antibodies were detected using a 1:100 dilution of FITC-conjugated donkey anti-guinea pig or a 1:125 dilution of TRITC-conjugated goat anti-rabbit secondary antibodies (Jackson ImmunoResearch, West Grove, Pa.). […] For photography, slides were assessed in the Massachusetts Central Microscopy Facility using a Zeiss LSM 510 Meta Confocal System and 630× magnification. […]
Samples were analyzed for carriage of Chlamydia-infected cells by FACScan (Becton, Dickinson and Company, Franklin Lakes, N.J.).

LDL = LDL levels in hyperlipidemic patients before and after delta-tocotrienol supplementation; assay type: in vivo, human
Procedure: In a clinical study, buffy coats from blood samples drawn both before and after delta-tocotrienol supplementation were immunostained for detection of Chlamydia-infected cells. The samples were tested for LDL levels both before and after delta-tocotrienol supplementation.

tumors = details: background statement, no source given; cited from earlier work
[1] = target: T1, 3-hydroxy-3-methylglutaryl coenzyme A (HMG-CoA) reductase (Homo sapiens, UniProt P04035); details: delta>gamma>beta>alpha tocotrienol (Tan, 2005); cited from earlier work
T1 sequence (P04035 1-888): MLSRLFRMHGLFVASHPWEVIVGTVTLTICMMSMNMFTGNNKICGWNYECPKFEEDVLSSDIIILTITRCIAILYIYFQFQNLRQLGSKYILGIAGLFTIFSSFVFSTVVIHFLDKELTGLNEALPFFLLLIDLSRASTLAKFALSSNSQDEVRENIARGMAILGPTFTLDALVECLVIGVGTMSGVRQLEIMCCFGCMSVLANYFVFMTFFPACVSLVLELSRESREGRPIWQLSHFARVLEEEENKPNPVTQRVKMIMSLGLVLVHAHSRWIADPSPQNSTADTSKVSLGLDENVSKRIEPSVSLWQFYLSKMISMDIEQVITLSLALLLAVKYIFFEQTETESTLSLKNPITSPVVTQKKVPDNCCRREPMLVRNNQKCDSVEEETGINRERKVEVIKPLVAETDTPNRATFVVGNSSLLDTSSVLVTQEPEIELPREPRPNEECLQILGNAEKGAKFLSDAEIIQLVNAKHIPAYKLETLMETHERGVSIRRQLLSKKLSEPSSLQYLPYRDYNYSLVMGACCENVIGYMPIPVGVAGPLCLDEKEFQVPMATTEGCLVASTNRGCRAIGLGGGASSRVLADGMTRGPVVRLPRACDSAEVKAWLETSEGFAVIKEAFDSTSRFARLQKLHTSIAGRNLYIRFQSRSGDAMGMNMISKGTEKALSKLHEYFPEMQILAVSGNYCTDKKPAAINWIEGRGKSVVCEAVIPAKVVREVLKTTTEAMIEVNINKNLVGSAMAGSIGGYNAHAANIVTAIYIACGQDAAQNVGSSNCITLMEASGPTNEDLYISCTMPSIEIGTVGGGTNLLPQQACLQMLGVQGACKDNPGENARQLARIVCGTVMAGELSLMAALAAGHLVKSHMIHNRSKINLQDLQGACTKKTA

delta tocotrienol
maximum chlamydial inhibition in JY cells (C. trachomatis SVK; at 36 hours, 30 μmol/L, flow cytometry): 2.6 fold | persistence of effect (C. trachomatis SVK; following one single tocotrienol treatment): at least 3 days | period in which chlamydial inhibition was effective (C. trachomatis SVK; one single tocotrienol treatment): ≤ 1 days | chlamydial inhibition in JY cells (C. trachomatis SVK; over an infection period of 72 hours, 30 μmol/L, flow cytometry): at least 2 fold | % Decrease in LDL (LDL; Patient 1 (Chlamydia negative before supplementation)): 20% | % Decrease in LDL (LDL; Patient 2 (Chlamydia positive before supplementation)): 7% | % Decrease in LDL (LDL; Patient 3 (Chlamydia strong positive before supplementation)): 25% | reduction of tumors (tumors): ≤ 70% | potency of cholesterol inhibition among tocotrienol isomers [1]: most potent isomer

Source: patent US20060241174A1, “Vitamin E tocotrienols inhibition of intracellularly obligate pathogen Chlamydia and methods of use” (priority 2005, published 2006)
